Cytotoxicity data for 103 molecules are collected here from ChEMBL document CHEMBL3507680, “University of Dundee, Gates Library screen for HepG2 cell viability”.

The data set is described as follows: Human HepG2 cell viability assay in 384 well format. The data set is classed as toxicity, cell-based. Also noted: dose 125 nL, time 70.5 hour; concentration not given beside the values. To be noted: HepG2 cells, read-out: Inhibition.

Turning to `O=C(NCCCN1CCCC1=O)Nc1ccc(Br)cc1Cl`, the cytotoxicity at 70.5 h was -3.68%.

For the molecule `CCOc1cccc2c1OCC(=O)N(c1ccc3c(c1)OCCO3)C2`, the cytotoxicity at 70.5 h was -6.5%.

Take `O=c1[nH]nc2c(S(=O)(=O)N3CCOCC3)cccn12`: the cytotoxicity at 70.5 h was -9.51%.

Turning to `Cn1ccc2c(cnc3nc(-c4ccncc4)nn32)c1=O`, the cytotoxicity at 70.5 h was -7.69%.

Turning to `Cc1nc2ncc3c(=O)n(C)ccc3n2n1`, the cytotoxicity at 70.5 h is -8.63%.

With `CCc1nnc2sc(-c3cc(C(C)C)n[nH]3)nn12`, the cytotoxicity at 70.5 h is -1.02%.

For `CC1CCC2(CC1)Nc1ccccc1CO2` (stereo not drawn), the cytotoxicity at 70.5 h stood at 15.1%.

As to `COC(=O)C1CCN(C(=O)c2cc(Br)ccc2-n2cnnn2)CC1`, the cytotoxicity at 70.5 h was -1.5%.

Consider `CN1CCCN(Cn2nc(-c3ccccc3F)ccc2=O)CC1`, for which the cytotoxicity at 70.5 h is -5.91%.

With `Cc1ccccc1CS(=O)(=O)c1nnc(C(C)NC(=O)OC(C)(C)C)o1` (stereo not drawn), the cytotoxicity at 70.5 h was 26.9%.

As for `CC(NC(=O)OC(C)(C)C)c1nnc(S(=O)(=O)Cc2ccccc2Cl)o1` (stereo not drawn), the cytotoxicity at 70.5 h was -4.85%.

As to `CC(=O)c1ccc(NC(=O)N[C@H](C(=O)O)C(C)C)cc1`, the cytotoxicity at 70.5 h is -6.92%.

For `CCOC(=O)C1CCN(C(=O)c2cc(Br)ccc2-n2cnnn2)CC1`, the cytotoxicity at 70.5 h was -6.49%.

Turning to `O=C(Cc1ccc2c(c1)OCC2)Nc1nc[nH]n1`, the cytotoxicity at 70.5 h was -8.03%.

On to `O=C(Cc1ccc2c(c1)OCC2)Nc1nn[nH]n1`, for which the cytotoxicity at 70.5 h was -8.8%.

`CC(NC(=O)OC(C)(C)C)c1nnc(S(=O)(=O)Cc2ccc(Cl)cc2)o1` (stereo not drawn): the cytotoxicity at 70.5 h stood at 4.02%.

`CC(CC(=O)O)CC(=O)Nc1sc2c(c1C(N)=O)CCc1ccccc1-2` (stereo not drawn): the cytotoxicity at 70.5 h amounted to 19.3%.

Turning to `NC(=O)c1c(NC(=O)C2CCCO2)sc2c1CCc1ccccc1-2` (stereo not drawn), the cytotoxicity at 70.5 h was -3.81%.

For `Cc1cccc(CSc2ncc(Br)c(C(=O)O)n2)c1`, the cytotoxicity at 70.5 h was -8.53%.

As for `Cc1ccc(CSc2ncc(Br)c(C(=O)O)n2)cc1`, the cytotoxicity at 70.5 h amounted to 0.214%.

`CCOc1cc(CNCCCn2ccnc2)cc(Cl)c1OC`: the cytotoxicity at 70.5 h came to 3.61%.

For `CCOc1c(Cl)cc(Cl)cc1CNCCCn1ccnc1`, the cytotoxicity at 70.5 h was -10.4%.

Regarding `Cc1nc(Nc2ccc(Cl)cn2)sc1C(=O)NC(C)C`, the cytotoxicity at 70.5 h was determined as 7.41%.

As to `Cc1c(C(=O)O)nnn1Cc1cccc(C(F)(F)F)c1`, the cytotoxicity at 70.5 h is -12.7%.

In the case of `O=C(COCc1nc(-c2ccncc2)no1)N1CCOCC1`, the cytotoxicity at 70.5 h is -0.64%.

Take `CCN1CCN(C(=O)COCc2nc(-c3ccncc3)no2)CC1`: the cytotoxicity at 70.5 h is -1.19%.

Regarding `Cc1cc(O)n(-c2ccc3nnc(C)n3n2)n1`, the cytotoxicity at 70.5 h is -19.5%.

Consider `O=C(O)c1cnc(N2CCCC2)nc1COc1ccccc1`, for which the cytotoxicity at 70.5 h is -2.71%.

Turning to `Cc1nc(N2CCCC2)ncc1-c1cc(O)n2ncnc2n1`, the cytotoxicity at 70.5 h is -2.97%.

Consider `COCCNc1cc(C(=O)N2CCOCC2)nc(C)n1`, for which the cytotoxicity at 70.5 h is 0.483%.

On to `CCn1nc(C)c2nnn(CC(=O)Nc3cccc(C)c3)c(=O)c21`, for which the cytotoxicity at 70.5 h is -10.1%.

With `Cc1nc(NCCc2ccccc2)cc(C(=O)N2CCCCC2)n1`, the cytotoxicity at 70.5 h is -0.559%.

`COc1ccc(OCCc2nnc(NC(C)=O)s2)cc1`: the cytotoxicity at 70.5 h is -4.39%.

Take `Cc1nc(NCc2ccc(F)cc2)cc(C(=O)N2CCOCC2)n1`: the cytotoxicity at 70.5 h was -3.46%.

With `Cc1c(Cc2ccccc2)c(O)nc2nc(N3CCOCC3)nn12`, the cytotoxicity at 70.5 h is -8.68%.

Take `Cc1cccc(NC(=O)CN2C(=O)CC(C)(C)c3ccccc32)n1`: the cytotoxicity at 70.5 h was -8.87%.

Turning to `CC1(C)CC(=O)N(CC(=O)Nc2ccon2)c2ccccc21`, the cytotoxicity at 70.5 h was -6.95%.

For `O=C(Nc1cc(-c2ccncc2)no1)C1CCCCC1`, the cytotoxicity at 70.5 h is -6.08%.

For `CCn1nc(C)c(NC(=O)c2nnn(Cc3ccccc3)c2OC)c1C`, the cytotoxicity at 70.5 h was -5.09%.

Turning to `O=C(Nc1cc(-c2cccnc2)no1)C1CCC1`, the cytotoxicity at 70.5 h was -13%.

As to `O=C(Nc1cc(-c2ccccn2)no1)C1CC1`, the cytotoxicity at 70.5 h stood at 11.7%.

Turning to `CCCNC(=O)c1cc(C(C)C)nc(N2CCCCC2)n1`, the cytotoxicity at 70.5 h was 3.03%.

For the molecule `CC(C)c1cc(C(=O)NCCN2CCOCC2)nc(N2CCCC2)n1`, the cytotoxicity at 70.5 h is -3.85%.

`Cc1ccnc(NC(=O)c2cccc(OCc3nnnn3C)c2)c1`: the cytotoxicity at 70.5 h was -17.9%.

For `Cc1ccc(NC(=O)c2cccc(OCc3nnnn3C)c2)nc1`, the cytotoxicity at 70.5 h was -9.18%.

Consider `CC(C)n1cc(N2CC(C(=O)N3CCN(C)CC3)CC2=O)cn1` (stereo not drawn), for which the cytotoxicity at 70.5 h was -10.8%.

Turning to `CC(C)n1cc(N2CC(C(=O)N3CCCC3)CC2=O)cn1` (stereo not drawn), the cytotoxicity at 70.5 h was -6.71%.

In the case of `COC(=O)CCn1ccc(=O)c2cc(OC)ccc21`, the cytotoxicity at 70.5 h was -0.582%.

With `Oc1ccccc1-c1n[nH]c(C2CC2)n1`, the cytotoxicity at 70.5 h is 11.6%.

As to `Cc1cc2nc(O)c(O)nc2cc1S(=O)(=O)NC1CC1`, the cytotoxicity at 70.5 h is -12.3%.

As to `CCn1nc(C)c2nc(C(C)C)nc(NCCCO)c21`, the cytotoxicity at 70.5 h was -16.2%.

As to `CCCc1nc(NCCCO)c2c(n1)c(C)nn2CC`, the cytotoxicity at 70.5 h is -14%.

With `CCNC(=O)c1nnn(Cc2ccccc2)c1OC`, the cytotoxicity at 70.5 h was -7.02%.

With `CCN(CC)C(=O)c1nnn(Cc2ccccc2)c1OC`, the cytotoxicity at 70.5 h stood at 0.599%.

Regarding `CC(=O)Nc1ncc(S(=O)(=O)Nc2ccc(F)cc2F)s1`, the cytotoxicity at 70.5 h was -0.452%.

As for `COC(=O)c1cccc(NS(=O)(=O)c2cnc(NC(C)=O)s2)c1`, the cytotoxicity at 70.5 h was -1.8%.

With `O=C(Cn1cc(I)cn1)N1CCc2ccccc2C1`, the cytotoxicity at 70.5 h is -3.15%.

On to `CCc1nc(NCCCn2cccn2)c2c(n1)c(C)nn2C`, for which the cytotoxicity at 70.5 h was -1.69%.

Regarding `CCc1nc(NCCCOC)c2c(n1)c(C)nn2C`, the cytotoxicity at 70.5 h was -13.4%.

As to `CCn1nccc1CNC(=O)C(C)n1cc2c(n1)c(C)nn2C` (stereo not drawn), the cytotoxicity at 70.5 h stood at 3.69%.

As to `Cc1cc(C(F)(F)F)nn1CC(C)C(=O)Nc1ccncc1` (stereo not drawn), the cytotoxicity at 70.5 h turned out to be 1.22%.

Consider `Cc1cc(C(F)(F)F)nn1C(C)C(=O)Nc1ccncc1` (stereo not drawn), for which the cytotoxicity at 70.5 h amounted to 23.9%.

`COc1ccc(CNC(=O)c2nn(C)c3c2CS(=O)(=O)CC3)cc1OC`: the cytotoxicity at 70.5 h stood at 1.56%.

On to `Cc1nn(C)c2c(N3CCN(C(=O)C4CCC4)CC3)ncnc12`, for which the cytotoxicity at 70.5 h is -5.94%.

As to `CN(C)C(=O)CNC(=O)CCn1ncc2c(Cl)cccc21`, the cytotoxicity at 70.5 h was -5.6%.

On to `O=C(NCc1ccccc1)c1nnc2ccc(N3CCOCC3)cc2n1`, for which the cytotoxicity at 70.5 h is 4.86%.

As to `CCCNC(=O)c1cnc(N(C)C)nc1COC`, the cytotoxicity at 70.5 h is -5.33%.

Regarding `COc1ccccc1CNC(=O)Cn1ncc2c1c(C)nn2C`, the cytotoxicity at 70.5 h came out at 0.128%.

Regarding `CCN(CC)C(=O)c1ccn(COc2cc(C)cc(C)c2)n1`, the cytotoxicity at 70.5 h is 4.47%.

On to `CCN(CC)CCNC(=O)c1ccn(COc2cc(C)cc(C)c2)n1`, for which the cytotoxicity at 70.5 h was -3.13%.

Turning to `CCCN1CCN(C(=O)C(C)n2cc(Br)cn2)CC1` (stereo not drawn), the cytotoxicity at 70.5 h was -7.56%.

Turning to `Cc1cccc2c1cnn2CCCNC(=O)C(C)C`, the cytotoxicity at 70.5 h is -10%.

In the case of `CC1(C)CC(N2Cc3nc(N)ncc3C2=O)CC(C)(C)N1`, the cytotoxicity at 70.5 h was -8%.

Consider `CCOc1ccc(N2CCCN=C2NC(=O)c2cccc(Cl)c2)cc1`, for which the cytotoxicity at 70.5 h was -9.1%.

Turning to `CCOC(=O)CNC(=O)N1CCN(c2ncccn2)CC1`, the cytotoxicity at 70.5 h was -4.84%.

In the case of `CC(C)c1ccc(OCn2ccc(C(=O)N3CCCC3)n2)cc1`, the cytotoxicity at 70.5 h was -4.33%.

For `Cc1nc(NCCc2ccc(Cl)cc2)cc(C(=O)N2CCOCC2)n1`, the cytotoxicity at 70.5 h was -7.59%.

As to `CC(C(=O)NCCCn1ccnc1)n1cc(Br)cn1` (stereo not drawn), the cytotoxicity at 70.5 h was -9.82%.

On to `Cc1nn(CC(=O)N2CCN(c3ccccc3F)CC2)c(C)c1Cl`, for which the cytotoxicity at 70.5 h is -2.28%.

As to `CCC(C)c1noc(C2CCN(C(=O)c3cccnc3)CC2)n1` (stereo not drawn), the cytotoxicity at 70.5 h was -12.8%.

With `CCn1cc(Br)c(C(=O)NCc2cnn(C)c2)n1`, the cytotoxicity at 70.5 h was -13.6%.

As to `CCn1cc(CN2C[C@@H]3CCCN3C[C@H]2CCSC)c(C)n1`, the cytotoxicity at 70.5 h was -4.8%.

In the case of `Cc1cc(N(C)C)nc(C2(C)CCCN2C(=O)c2ccccc2)n1` (stereo not drawn), the cytotoxicity at 70.5 h was -8.94%.

On to `OCCN1CCC(c2cncc(-c3cccc(Cl)c3)n2)CC1`, for which the cytotoxicity at 70.5 h was -3.96%.

Turning to `c1cc(N2CCCC2c2cnccn2)ncn1` (stereo not drawn), the cytotoxicity at 70.5 h is -10%.

Take `Cc1cc(N2CCCC2c2nccnc2C)ncn1` (stereo not drawn): the cytotoxicity at 70.5 h was -5.86%.

For the molecule `CN1CCCC1c1ccnc(C(=O)N(C)C2CCCCC2)c1` (stereo not drawn), the cytotoxicity at 70.5 h is -11.9%.

Turning to `CC(=O)N1CCC(c2cc(Nc3ncccn3)nc(C)n2)C1` (stereo not drawn), the cytotoxicity at 70.5 h is -6.88%.

Consider `COCC(=O)N1CCCCC1c1ccnc(Nc2ncc(C)s2)n1` (stereo not drawn), for which the cytotoxicity at 70.5 h is -0.578%.

Take `O=C(c1cncnc1)N1C[C@@H]2CC[C@H](Oc3cccc(F)c3)[C@@H]2C1`: the cytotoxicity at 70.5 h was -8.85%.

As for `Cc1cc(C)nc(Nc2cncc(C3CCCN(S(C)(=O)=O)C3)n2)n1` (stereo not drawn), the cytotoxicity at 70.5 h was found to be 33.8%.

With `Cc1cccc(-c2cccc(CC3(C(=O)O)CCOCC3)c2)c1`, the cytotoxicity at 70.5 h came to 9.91%.

On to `COCCN1CCC(c2cncc(N(C)C)n2)CC1`, for which the cytotoxicity at 70.5 h was found to be 16.5%.

Take `O=C(C1CC1)N1CCC(c2nc(O)c3c(n2)CN(C2CCCC2)CC3)C1` (stereo not drawn): the cytotoxicity at 70.5 h was determined as 9.71%.

Regarding `COCCC(=O)N1CCC(c2nc(O)cc(-c3ccncc3)n2)C1` (stereo not drawn), the cytotoxicity at 70.5 h is -11.8%.

For `Cc1c(C2CCCN(C(=O)c3ccn(C)n3)C2)n2c(nc1=O)CCC2` (stereo not drawn), the cytotoxicity at 70.5 h was -7.35%.

Turning to `CC(=O)Nc1nc(C2CCN(C(=O)Cc3ccccc3)CC2)cs1`, the cytotoxicity at 70.5 h is -5.09%.

On to `COCCN1CCCC(CCCc2ccccn2)(C(N)=O)C1` (stereo not drawn), for which the cytotoxicity at 70.5 h is -6.05%.

Take `CC(=O)N1CCN(C(C)C)CC(COc2ccccc2)C1` (stereo not drawn): the cytotoxicity at 70.5 h was -6.04%.

As for `COCCN1CCC(Cc2cncc(-c3ccc(C(=O)O)cc3)n2)CC1`, the cytotoxicity at 70.5 h worked out at 8.54%.

In the case of `CCOC(=O)CSc1nnc(C(N)CC(C)C)o1` (stereo not drawn), the cytotoxicity at 70.5 h was -7.86%.

With `Cc1c(C2CCCN(C(=O)c3ccncc3)C2)n2c(nc1=O)CCC2` (stereo not drawn), the cytotoxicity at 70.5 h is -9.8%.

Regarding `Cc1cnc(C(=O)N2CCCC(c3c(C)c(=O)nc4n3CCC4)C2)cn1` (stereo not drawn), the cytotoxicity at 70.5 h was -7.55%.
